In assay [1] the test system is Trypanosoma cruzi. Description: Antitrypanosomal activity against Trypanosoma cruzi Tulahuen epimastigotes after 72 hrs. In kind it is functional, organism-based.
Assay [2] relates to Leishmania amazonensis. Description: Antileishmanial activity against Leishmania amazonensis IFLA/BR/67 promastigotes at pH 8.0 after 72 hrs. In kind it is functional, organism-based.
Assay [3] deals with Leishmania donovani. Description: Antileishmanial activity against Leishmania donovani MHOM/BR/74/PP75 promastigotes after 72 hrs. To be noted: MHOM/BR/74/PP75, 72 h.
Assay [4] concerns Leishmania braziliensis. Description: Antileishmanial activity against Leishmania braziliensis MHOM/BR/75/M2903 promastigotes after 72 hrs. In kind it is functional, organism-based. To be noted: MHOM/BR/75/M2903, 72 h.

On to `O=C(Cn1ccnc1[N+](=O)[O-])NCc1ccccc1` [BENZNIDAZOLE], for which, in assay [1], the half-maximal inhibitory concentration (IC50) was found to be 74 µM. This lies in the double-digit micromolar range.
As to `CCCCCCCCCCCCC/C=C1/CCC[C@@H](NCc2ccccc2)[C@@H]1NCCCCCC`, the IC50 is 15.5 µM in assay [2], 13 µM in assay [3], 10.8 µM in assay [4] and 98 µM in assay [1].
For `CCCCCCCCCCCCC/C=C1/CCC[C@H](OCc2ccccc2)[C@H]1N(CC)CC`, the concentration for half-maximal inhibition (IC50) was 157 µM in assay [2], 157 µM in assay [3], 148 µM in assay [4] and 106 µM in assay [1].
`CCCCCCCCCCCCC/C=C1/CCC[C@@H]2[C@H]1N2CCCCCC` (stereo partly specified): the IC50 in assay [2] amounted to 2.4 µM; in assay [3] it was 1.8 µM; in assay [4], 2.4 µM; in assay [1], 51 µM.
As for `N=C(N)c1ccc(OCCCCCOc2ccc(C(=N)N)cc2)cc1` [PENTAMIDINE], the 50% inhibitory concentration (IC50) in assay [2], in assay [3] and in assay [4] was 29.4 µM in each case.
On to `CCCCCCCCCCCCC/C=C1/CCC[C@H](O)[C@H]1NCCN` (relative stereo), for which the IC50 in assay [2] worked out at 1.1 µM; in assay [3], 1.1 µM; in assay [4], 1.1 µM; in assay [1], 0.14 µM.
In the case of `CCCCCCCCCCCCC/C=C1/CCC[C@@H](NCCCC)[C@@H]1OC(C)=O`, the IC50 was found to be 7.3 µM in assay [2], 9.6 µM in assay [3], 7.3 µM in assay [4] and 1.2 µM in assay [1].
Turning to `CCCCCCCCCCCCC/C=C1/CCC[C@@H]2[C@H]1N2Cc1ccccc1` (stereo partly specified), the IC50 was determined as 16.2 µM in assay [2], 19.9 µM in assay [3], 16.2 µM in assay [4] and 31 µM in assay [1].
With `C[C@@H]1[C@H](O)[C@@H](C)/C=C/C=C/C=C/C=C/C=C/C=C/C=C/[C@H](O[C@@H]2O[C@H](C)[C@@H](O)[C@H](N)[C@@H]2O)C[C@@H]2O[C@](O)(C[C@@H](O)C[C@@H](O)[C@H](O)CC[C@@H](O)C[C@@H](O)CC(=O)O[C@H]1C)C[C@H](O)[C@H]2C(=O)O` (stereo in doubt) [AMPHOTERICIN B], the 50% inhibitory concentration (IC50) in assay [2] and in assay [4] was 0.2 µM each time.
Turning to `CCCCCCCCCCCCC/C=C1/CCC[C@@H](NCCCC)[C@@H]1NCCCCCC`, the IC50 in assay [2] came out at 14 µM; in assay [3] it was 17.4 µM; in assay [4], 14 µM; in assay [1], 116 µM.
Take `CCCCCCCCCCCCC/C=C1/CCC[C@H](NCCCC)[C@H]1OC(C)=O`: the IC50 is 9.1 µM in assay [2], 8.6 µM in assay [3], 8.8 µM in assay [4] and 8.6 µM in assay [1].
On to `CCCCCCCCCCCCC/C=C1/CCC[C@H](O)[C@H]1OC(C)=O`, for which the half-maximal inhibitory concentration (IC50) was found to be 11.6 µM in assay [2], 13.3 µM in assay [3], 13.3 µM in assay [4] and 8.8 µM in assay [1].
`CCCCCCCCCCCCCC[C@@H]1CCC[C@H](O)[C@H]1N` (relative stereo): the IC50 in assay [2] worked out at 0.26 µM; in assay [3], 0.29 µM; in assay [4], 0.29 µM; in assay [1] it was 0.19 µM.

As usually defined, the IC50 is the concentration at which inhibition is half-maximal. Low readings indicate higher potency, high ones lower potency.

The record behind these values is ChEMBL document CHEMBL1140784, “Leishmanicidal and trypanocidal activities of 2-aminocyclohexanol and 1,2-cyclohexanediamine derivatives” (Bioorg Med Chem Lett, 2008).
